Read-outs that look alike come from different tables or passages of the source.
What was measured:
[1] = cited from earlier work
[2] = at 25° C.; cited from earlier work
sediment microcosms = assay: Effect of TCC, TCS and BES on TCE dechlorination in sediment microcosms and cultures derived from them; format: cell-based; conditions: for effect on TCE reductive dechlorination in microcosms: addition of 20 μg/L TCC and TCS; for effect on TCE dechlorination rates in sediment-free cultures: cultures from microcosms amended with TCC, TCS, BES
Method: In this study, microcosm is defined as: anaerobic airtight serum bottles with sediment samples, anaerobic medium, electron donor, and a chlorinated compound used as an electron acceptor. Four microcosms were set up in the anaerobic glove chamber with H2 concentration of 3% (Coy laboratory products Inc. Grass Lake, Mich.). Ten gram of homogeneously mixed sediment from either core A or core D were transferred independently into a 160 ml sterile serum bottle, and 90 ml anaerobic media with vitamin solution and 2 mM lactate were added. One hundred μL of 20 mg/L TCC stock solution in methanol and 100 μL of 20 mg/L TCS stock solution were added by pipette (Eppendorf, Calif.) to two of the four microcosms. Microcosms were capped with thick black butyl rubber stoppers and aluminum crimps. 4.5 μL pure TCE was injected with airtight syringe (Hamilton Company, Reno, Nev.) into each serum bottle. On day 130, in order to inhibit methane production in the sediment microcosms, 25 mM BES was added in to sediment-A microcosm and sediment-D microcosm with TCC and TCS with airtight syringe (Hamilton Company, Reno, Nev.). Microcosms were stored in the dark and incubated at 30° C.
Production of Sediment-Free Cultures. To establish sediment-free cultures from core A and core D sediment microcosms, the microcosms were shaken vigorously, and the solids were allowed to settle down. Then, using 1-inch, 21-gauge sterile needles, […] liquid (10 ml) were transferred into 89 ml sterile medium with the following contents: anaerobic medium, ATCC vitamin mix, and vitamin B12, in 160-ml serum bottles. Then, 1 ml each of 500-mM lactate stock solution and 35-μL TCE stock solution (1 mol/L in methanol) were added to form a 100 ml culture in 160-ml serum bottle. Three sediment cultures were derived from each sediment microcosm, and 12 sediment-free cultures were produced (FIG. 1). For organizational purposes, we refer to the sediment-free cultures generated from sediment-A microcosms as SCA and the sediment free cultures generated from sediment-D microcosms as DehaloR̂2, in the figures herein, the DehaloR̂2 are referred to as “SCD”. Thus, the term “SCD” and DehaloR̂2 are used interchangeably herein as the composition “SCD” was renamed “DehaloR̂2” during the course of investigation. The sediment-free cultures were kept in the dark and incubated at 30° C. After all the chlorinated electron acceptors were consumed, the cultures were re-spiked with TCE and electron donors.
BES (2-bromoethanesulfonate) is an efficient inhibitor for the metabolism of methanogens in methanogenetic cultures because it is a structural analog and competitive inhibitor of coenzyme M, which is only found in methanogens (Dimarco et al., 1990; Sparling and Daniels, 1987). Different concentrations of BES have been used by researchers. […] In this study, in order to determine if the cause for incomplete reductive dechlorination was competition for electron donor between methanogens and TCE dechlorinating microorganisms in the microcosms, I added 25 mM BES, 70 μmol of TCE, and 5 mM lactate into two sediment microcosms, sediment-A and sediment-D with TCC and TCS. In two other sediment microcosms, I added 70 μmol of TCE and 5 mM lactate without BES.

[3] = at 25° C., table values calculated using PBT Profiler and ECOSAR

What does the source list for `O=C(Nc1ccc(Cl)cc1)Nc1ccc(Cl)c(Cl)c1` [TCC, 3-(4-chlorophenyl)-1-(3,4-dichlorphenyl) urea]?
Water solubility ([1]; at 20° C.): 0.05 µg/mL; Water solubility [1, 3]: 0.65 µg/mL; Water solubility ([1]; at 25° C., table values calculated using PBT Profiler and ECOSAR, listed as Triclocarban): 0.65 to 1.55 µg/mL; Vapor pressure [2]: 3.61 × 10^−9 mm Hg; effect on TCE reductive dechlorination in microcosms (sediment microcosms): can be neglected; effect on TCE dechlorination rates in sediment-free cultures (sediment microcosms): slow down TCE dechlorination rates

For `Oc1cc(Cl)ccc1Oc1ccc(Cl)cc1Cl` [TCS, 5-chloro-2-[2,4-dichloro-phenoxy]-phenol], which Water solubility ([1]; at 20° C.) is on record?
The Water solubility was <1 µg/mL.

And the Water solubility [1, 3]?
Its Water solubility is 4.6 µg/mL.

What about the Water solubility ([1]; at 25° C., table values calculated using PBT Profiler and ECOSAR, listed as Triclosan) of the same compound?
The Water solubility was 1.97 to 4.62 µg/mL.

What about the Vapor pressure [2] of the same compound?
Its Vapor pressure is 4.65 × 10^−6 mm Hg.

And the “effect on TCE reductive dechlorination in microcosms” value (sediment microcosms)?
Its value is “can be neglected”.

What about the “effect on TCE dechlorination rates in sediment-free cultures” value (sediment microcosms) of the same compound?
Its value is “slow down TCE dechlorination rates”.

— patent US20120178147A1, “MICROBIAL CULTURES AND METHODS FOR ANAEROBIC BIOREMEDIATION” (priority 2009, published 2012)
